Laboratory results: patent US20030180952A1, “Plant regeneration” (Sugar Research & Development Corporation, priority 2000, published 2003)

Assays:
[1] = system: inflorescence explants of sugarcane Q152; experiment: Regeneration from inflorescence explants; format: cell-based; conditions: Table 18 (b) ˜8 mm pieces of main floral axis placed laterally
Protocol: Table 18: Comparison of regeneration efficiency for different sugarcane explants. Explants were (a) 2-3 mm sections of main floral axis of inflorescence; (b) ˜8 mm sections of main floral axis placed laterally on the culture medium; (c) immature floral tissues dissociated from floral axis; and (d) whole 2-3 mm sections of inflorescence oriented “top down”. B4N10=4 μM BA+10 μM NAA; B4N40=4 μM BA+40 μM NAA; B4N60=4 μM BA+60 μM NAA; 2,4D14=14 μM 2,4,D. “Top down” orientation is as previously described. Shoot frequency legend: *1-2 shoots per explant; **3-10 shoots per explant; ***greater than […] shoots per explant.
Young bolting inflorescence “stalk” tissue enveloped in developing leaves (floral and leaf components) was harvested from above the apical meristem of Q152 or Q165 sugarcane plants. Transverse sections were made to produce 2-3 mm thin sections of the tissue.
Murashige & Skoog (MS) nutrient formulation supplemented with 30 g/L sucrose and 7.5 g/L Difco agar were used as the basal culture medium. Basal medium was enriched with different concentrations and combinations of (i) a cytokinin: 6-benzylaminopourine (BA) or kinetin (KIN); (ii) an auxin: α-napthaleneacetic acid (NAA); and (iii) anti-oxidants: citric acid (CA), ascorbic acid (AA), or dithiothreitol (DTT); depending on the experimental objective. […]

[2] = system: leaf whorl explants of sugarcane cultivar Q165; experiment: Somatic embryogenesis / shoot regeneration in leaf whorl explants; format: cell-based; conditions: sugarcane leaf section cultures
Protocol: Table 19: Morphogenic response of leaf whorl explants (1.0-2.0 mm thick) of sugarcane cultivar Q165 after 8 weeks of culture on MS medium supplemented with chlorophenoxyacetic acid (CPA). Ten replicates, each with 10 explants placed in top down orientation, were maintained for each treatment. Explants were cultured under dark condition for the initial 5-6 weeks and then transferred to light (16 hr/day) for further shoot/planlet development. C=Mostly non-embroygenic callus was produced.
Table 20: Morphogenic response of leaf whorl explants (1.0-2.0 mm thick) of sugarcane cultivar Q165 after 8 weeks of culture on MS mediun supplemented with chlorophenoxyacefic acid (CPA). Ten replicates, each with 10 explants placed in top down orientation, were maintained for each treatment. All cultures received 16 hr light every day.
Table 21: Shoot regeneration in 1.0-2.0 mm thick leaf whorl explants of sugarcane cultivar Q165 after 8 weeks of culture on MS medium containing 6-benzyladenine (BA), α-naphthaleneacetic acid (NAA) and cholorophenoxyacetic acid (CPA). Ten replicates, each with 10 explants placed in top down orientation, were maintained for each treatment. All cultures received 16 hr light every day. […]

[3] = system: leaf base sections of sorghum variety New Nugget; experiment: Somatic embryogenesis and shoot production in leaf base sections; format: cell-based, Sorghum bicolor L.; conditions: for regeneration with other hormone combinations: sorghum
From the text: Table 26: Effect of different levels of cholorophenoxyacetic acid (CPA) on somatic embryogenesis and shoot production in 1.0-2.0 mm thick leaf base sections of sorghum (Sorghum bicolor L.) variety New Nugget after 8 weeks of culture. Five to six replicates, each with 10 explants placed in “top down” orientation, were maintained for each treatment. All cultures received 16 hr light every day.
Table 27: Effect of different levels of cholorophenoxyacetic acid (CPA) and 6-benzyladenine (BA) on somatic embryogenesis and shoot production in 1.0-2.0 mm thick leaf base sections of sorghum (Sorghum bicolor l L.) variety New Nugget after 8 weeks of culture. Five to six replicates, each with 10 explants placed in “top down” orientation, were maintained for each treatment. All cultures received 16 hr light every day.
Young developing leaf sheaths (the innermost 3-4 whorls at the shoot tip) were used as the explant. Explants were preferably 1.0-2.0 mm thick transverse sections taken from the whorls. MS nutrient medium containing 3% sucrose and 7.5 g/L Davis J3 agar was used as the basal medium for all experiments. MS-based medium with several plant growth regulators was tested as a micropropagation medium.

[4] = system: leaf explants of sugarcane cultivar Q165; experiment: Shoot regeneration in leaf explants on MS medium with cytokinin and auxin; format: cell-based; conditions: at any given concentration of NAA; Tables 7, 8 and 10
Protocol: (§1) Top portions (about 30 cm) of shoots were cut and all leaves except the innermost 3-4 whorls were carefully removed under aseptic conditions. TS explants measuring about 1.0-2.0 mm or 5.0-6.0 mm in thickness were prepared by serial transverse sectioning of the lowermost 3-4 cm portion (just above the apical meristem) of the leaf spindle using a sharp surgical blade under sterile conditions.
Murashige & Skoog (MS) nutrient formulation supplemented with 30 g/L sucrose and 7.5 g/L Difco agar were used as the basal culture medium. Basal medium was enriched with different concentrations and combinations of (i) a cytokinin: 6-benzylaminopourine (BA) or kinetin (KIN); (ii) an auxin: α-napthaleneacetic acid (NAA); and (iii) anti-oxidants: citric acid (CA), ascorbic acid (AA), or dithiothreitol (DTT); depending on the experimental objective. The pH of the medium was adjusted to 5.7 before autoclaving for 20 minutes at 120° C. […]
Also, the concentrations of BA and NAA were varied in order to determine their influence upon shoot generation. […] The percentage of explants producing shoots were scored, as were the number of shoots produced per explant. […]

[5] = system: leaf explants of sugarcane cultivar 91N406; experiment: Direct shoot regeneration in leaf explants on MS medium with BA and NAA; format: cell-based; conditions: 91N406 explants; BA 4 μM
From the text: Table 12: Direct shoot regeneration in leaf explants (1-2 mm thick) of sugarcane cultivar 90N876 cultured on MS medium supplemented with 6-benzyladenine (BA) and α-napthaleneacetic acid (NAA) for 8 weeks. Thirty replicates, each with 10 explants cultured in top down orientation, were maintained for each treatment. Table 13: Direct shoot regeneration in leaf explants (1-2 mm thick) of sugarcane cultivar 91N406 cultured on MS medium supplemented with 6-benzyladenie (BA) and α-napthaleneacetic acid (NAA) for 8 weeks. Five replicates, each with 10 explants cultured in top down orientation were maintained for each treatment.
as §1
Murashige & Skoog (MS) nutrient formulation supplemented with 30 g/L sucrose and 7.5 g/L Difco agar were used as the basal culture medium. […]

## O=C(O)COc1ccc(Cl)cc1Cl [2,4-D14]
[1]
  Number of explants showing reg'n: 0
  Percentage of explants regenerating: 0%

## Nc1cc(Cl)cc(C(=O)O)c1Cl [AD, 3 amino-2,5-dichlorobenzoic acid]
[2]
  morphological abnormalities in the regenerated plants: developed albinos occasionally

## c1coc(CNc2ncnc3[nH]cnc23)c1 [KIN, kinetin]
[3]; added after the initial embryo formation
  effect on shoot regeneration: enhanced
[4]
  optimal concentration of cytokinin for shoot regeneration: 4 µM

## O=C(O)Cc1cccc2ccccc12 [NAA, α-napthaleneacetic acid]
[5]
  optimal concentration of NAA for shoot regeneration: 40 µM

## COc1c(Cl)ccc(Cl)c1C(=O)O [dicamba]
[3]
  regeneration with other hormone combinations: unsucessful
[3]; sorghum cultures containing dicamba
  callus growth: some callus growth was seen

## Nc1c(Cl)c(Cl)nc(C(=O)O)c1Cl [picloram]
[3]
  regeneration with other hormone combinations: unsucessful

## O=C(Nc1ccccc1)Nc1cnns1 [thidiazuron]
[3]
  regeneration with other hormone combinations: unsucessful
